{
  "source": "patent US20050187188A1",
  "about": "“Methods for the treatment of a traumatic central nervous system injury” (Emory University, priority 2000, published 2005)",
  "key": {"[1]": {"test_system": "rats with bilateral contusions of the medial prefrontal cortex", "assay": "Lesion size, ventricle and striatal area measurements after medial prefrontal cortex contusion, Example 6", "assay_type": "in vivo, rat", "conditions": "4 mg/kg in peanut oil", "experimental": "Male Sprague-Dawley rats (300 g) were housed individually in wire cages and kept on a reverse light-dark cycle (0800-2000 h). Animals were assigned to one of four groups: (1) lesion (n=7); (2) lesion +3 days progesterone (LP3; n=7); (3) lesion +5 days progesterone (LP5; n=7); and (4) Sham (n=8). All procedures involving animals conformed to guidelines set forth in the Guide for the Care and Use of Laboratory Animals (U.S. Department of Health and Human Services, Pub no. 85-23, 1985) and were approved by the Emory University Institutional Animal Care and Use Committee.\nBilateral contusions of the medial prefrontal cortex were created by a pneumatic impactor device as previously described. Briefly, rats were given anesthetized with ketamine/xylazine (90 mg/kg; 10 mg/kg) and placed in a stereotaxic apparatus. A craniectomy (diameter 6 mm) was made over the midline of the prefrontal cortex with its center 1.5 mm AP to bregma. After removal of the bone, the tip of the impactor (diameter 5 mm) was moved to +3.0 mm AP; 1.0 mm ML (from bregma), and checked for adequate clearance. Trauma was produced by pneumatically activating the piston to impact −2.0 mm DV (from dura) at a velocity of 3 m/s with a brain contact time of 0.5 seconds.\nProgesterone was dissolved in peanut oil (Sigma; 4 mg/kg) and injections were given at 1 and 6 hours post-injury and then once per day for either 3 or 5 consecutive days. Control animals received injections of vehicle at similar time-points. Animals were coded with regard to surgery and treatment to prevent experimenter bias during behavioral testing and histological examination. […]\nMean area measurements of lesion size were quantified from sections at 15 rostral-caudal levels spaced 300 μm apart. […] Perimeters of the striatum and the lateral ventricles were also traced and mean areas were quantified from 7 rostral-caudal levels (300 μm apart).\nExperienced individuals who were blind to treatment conditions of the study conducted all histological and behavioral analyses. All data were tested for normality and homoschedasticity before being analyzed by parametric analysis of variance (ANOVA). MWM results were analyzed using separate mixed-factorial (4 groups×5 days) analysis of variance (ANOVA) on each of the two 5-day testing periods (acquisition and retention respectively). Results of the BSN task were analyzed using the mixed-factorial ANOVA (4 groups×2 post-injury trials). […] Pearson r coefficients were calculated to determine whether significant correlations could be detected between histological (e.g., lesion size and cellular density) and behavioral parameters (e.g., acquisition and retention of the MWM task and measures of sensory neglect)."}, "[2]": {"test_system": "traumatic brain injury", "assay": "Sticker removal task (tactile adhesive removal) dose response, Example 7", "assay_type": "in vivo, rat", "source_text": "On the 7th and 27th days post-injury, the rats will be assessed on their responsivity to focal somatosensory stimuli by requiring them to remove sticky paper from their forelimbs. Pairs of circular adhesive papers will be attached to the distal-radial areas of each forelimb and the animal will be returned to its home cage while the investigator holds the forepaws apart and keeps them away from the rat's mouth. The rats' latencies to remove the stimuli with their mouth will be recorded. The maximum length of a “test” trial will be 2 minutes, with each rat receiving four trials with 2 minute intertrial intervals.\n(§1) Surgery to induce a traumatic brain injury was performed as outlined in Example 1. Behavior testing using the Morris Water Maize was performed as outlined in Example 1 and the methods for the tactical adhesive removal were performed as outlined in Example 4."}, "[3]": {"test_system": "blood-brain barrier (BBB)", "conditions": "in vitro; macromolecules vs ions such as sodium; cited from earlier work"}, "[4]": {"test_system": "traumatic brain injury", "assay": "Morris water maze dose response, progesterone in cyclodextrin vehicle, Example 7", "assay_type": "in vivo, rat", "experimental": "The Morris Water Maize (MWM) consisted of a circular tank with a diameter of 133 cm filled with opaque water (20±1° C.; non-toxic Artista™ nontoxic white tempura paint) to a depth of 64 cm (23 cm from top of tank). A platform (11 cm×11 cm) was submerged to a depth of 2 cm and placed approximately 28 cm from the wall of the pool in the center of the northeast quadrant. The position of the platform will remain constant throughout the experiment. MWM testing began seven days after surgery. Each animal was tested for a total of 10 days (2 trials per day) in two 5-day blocks. At the start of each trial, the experimenter placed a rat into the pool at one of four starting positions, and at the same time, activate the computer-interfaced camera tracking system. Each rat was allowed to swim in the pool until it reached the platform or until 90 seconds has passed. […] Once a rat found the platform, it was left there for 20 seconds and then removed from the pool for an intertrial interval of 20 seconds. Each rat was then placed in the pool at another start position and the procedure described earlier was repeated. The performance of each rat was measured in terms of latency to platform, length of path to platform, and swim strategy, i.e., percent of total time spent in the outer versus inner annuli.\nas §1"}},
  "data": [
    {"smiles": "CC(=O)[C@H]1CC[C@H]2[C@@H]3CCC4=CC(=O)CC[C@]4(C)[C@H]3CC[C@]12C", "note": "[progesterone]", "values": [
      {"measurement": "enlargement of the lateral ventricles", "setting": "[1]; 3 or 5 days", "value": "did not have any effect on this measure"},
      {"measurement": "mean striatal area", "setting": "[1]; 3 or 5 days", "value": "No between-group differences"},
      {"measurement": "necrotic cavity formation", "setting": "[1]; 3 days (LP3)", "value": "tended to be smaller than in the brains of injured animals"},
      {"measurement": "necrotic cavity formation", "setting": "[1]; 5 days (LP5), P<0.05", "value": "significant reductions in overall necrotic cavity formation"},
      {"measurement": "sticker removal task (sensory neglect)", "setting": "[2]; high dose 32 mg/kg in cyclodextrin-containing carrier", "value": "degraded to lesion control levels"},
      {"measurement": "sticker removal task (sensory neglect)", "setting": "[2]; low dose 8 mg/kg in cyclodextrin-containing carrier", "value": "initially produce behavioral recovery"},
      {"measurement": "sticker removal task (sensory neglect)", "setting": "[2]; moderate dose 16 mg/kg in cyclodextrin-containing carrier", "value": "improved to sham levels by day 21 post-injury"},
      {"measurement": "permeability of the BBB", "setting": "[3]", "value": "reduce the permeability of the BBB to macromolecules, but not ions"},
      {"measurement": "Morris water maze performance", "setting": "[4]; high dose 32 mg/kg in a cyclodextrin-containing vehicle", "value": "did not show any beneficial effect"},
      {"measurement": "Morris water maze performance", "setting": "[4]; low dose 8 mg/kg in a cyclodextrin-containing vehicle", "value": "consistent improvement in Morris water maze performance"},
      {"measurement": "Morris water maze performance", "setting": "[4]; moderate dose 16 mg/kg in a cyclodextrin-containing vehicle", "value": "consistent improvement in Morris water maze performance"}
    ]}
  ]
}
